In publication PMC8778187, “A New Oxygen Containing Pyclen-Type Ligand as a Manganese(II) Binder for MRI and ^52Mn PET Applications: Equilibrium, Kinetic, Relaxometric, Structural and Radiochemical Studies” (Molecules, 2022):
Read-outs that look alike come from different tables or passages of the source. Marks after values point to notes of the source that are not given here. Blank lines part the entries; values can stand above or below the molecule they belong to.

How the values were obtained:
[1] = Zn^2+ complex, T = 25 °C, I = 0.15 M NaCl, cited from earlier work; for log KMnL / log KMnHL: ref 16 (PC2A ligands), 12 (DO2A ligands)
[2] = Ca^2+ complex, cited from earlier work
[3] = T = 25 °C, I = 0.15 M NaCl, ref 16 (PC2A ligands), 12 (DO2A ligands), cited from earlier work; for log K1^H / log K2^H / log K3^H / Σlog Κ2^H: 20 (H21,7-O2DO2A); for Σlog Κ2^H: log K1^H + log K2^H
[4] = Mg^2+ complex, cited from earlier work
[5] = Mn(II) complex, 25 °C, pH = 7.4, cited from earlier work
[6] = Cu^2+ complex, T = 25 °C, I = 0.15 M NaCl, cited from earlier work; for log KMnHL / log KMnL: ref 16 (PC2A ligands), 12 (DO2A ligands), 20 (H21,7-O2DO2A)
[7] = T = 25 °C, cited from earlier work; for log KMnL / pMn / log KMnHL: ref 16 (PC2A ligands), 12 (DO2A ligands); for log KMnL / pMn: 20 (H21,7-O2DO2A); for pMn: pMn = −log(Mn(II)free), cMn^2+ = cligand = 1 × 10^−5 M, pH = 7.4
[8] = cited from earlier work
[9] = pH = 6.0, 25 equivalents of Zn(II), 37 °C, cited from earlier work
[10] = cited from earlier work; remark: listed apart in the source
[11] = Stability test of 52Mn-labeled complexes in rat serum (radio-TLC); format: in vitro ADME; conditions: room temperature, up to 7 days
Method: Stability test of [[^52Mn]Mn(3,9-PC2A)] and [[^52Mn]Mn(3,9-OPC2A)] in rat serum. 100 µL aqueous solution of each radiolabeled complex (~7.5 MBq) was mixed with 100 uL of rat serum, and incubated at room temperature. Aliquots were taken and analyzed at the beginning and after 1, 2, 3, and 20 h, and 2, 3, and 7 days later, by the radio-TLC method, as explained mentioned above.

[12] = Metal challenge of 52Mn-labeled complexes (transmetalation); format: physicochemical; conditions: ZnCl2, CuCl2, MgCl2, CaCl2 mixture, room temperature, 7 days
Method: Metal challenge of [[^52Mn]Mn(3,9-PC2A)] and [[^52Mn]Mn(3,9-OPC2A)]. 49 µL aqueous solution of each radiolabeled complex (~3.75 MBq) was incubated with a 1:1 mixture of 0.1 mM ZnCl2 and 0.01 mM CuCl2 (1 µL), and a 1:1 mixture of 1.02 mM MgCl2 and 2.28 mM CaCl2 (50 µL) at room temperature. Samples were taken from the mixtures at the beginning and after 1, 2, 3, and 20 h, and 2, 3, and 7 days later. For the analysis of the samples, the above-mentioned radio-TLC method was applied.

[13] = EDTA challenge of 52Mn-labeled complexes (transchelation); format: physicochemical; conditions: 0.2 M H4EDTA (pH 7.4), room temperature, 7 days
Method: EDTA challenge of [[^52Mn]Mn(3,9-PC2A)] and [[^52Mn]Mn(3,9-OPC2A)]. 50 µL aqueous solution of each radiolabeled complex (~3.75 MBq) was incubated with 50 µL of 0.2 M EDTA (pH 7.4) solution at room temperature. Aliquots were taken and analyzed by the radio-TLC method, as mentioned above, at the beginning and after 1, 2, 3, and 20 h, and 2, 3, and 7 days incubation time.

[14] = Octanol/water partition coefficient (logP) of 52Mn-labeled complexes; format: physicochemical
Method: Determination of logP values of the [[^52Mn]Mn(3,9-PC2A)] and [[^52Mn]Mn(3,9-OPC2A)] chelates. 100 µL aqueous solution of each radiolabeled complex (~7.5 MBq) was added to 100 µL of octanol. The mixture was shaken with a vortex shaker (5 min, 1000 rpm) and centrifuged (5 min, 10,000 rpm). A total of 3 × 20 µL from the octanol and 3 × 20 µL from the water were pipetted into test tube, respectively. The radioactivity of the samples was measured with a gamma detector.

[15] = T = 25 °C, I = 0.15 M NaCl, ref 16 (PC2A ligands), 12 (DO2A ligands), 20 (H21,7-O2DO2A)
[16] = T = 25 °C, I = 0.15 M NaCl, ref 16 (PC2A ligands), 20 (H21,7-O2DO2A)
[17] = 0.49 T, ref 16 (PC2A ligands), 12 (DO2A ligands), 20 (H21,7-O2DO2A)

SMILES: O=C(O)CN1CCOCCN(CC(=O)O)CCOCC1 [H21,7-O2DO2A]
- log KMnLOH ([1]; DO2A values carry footnote f, ref 12 (DO2A ligands), 20 (H21,7-O2DO2A)): 11.40
- log KMnL ([1]; 20 (H21,7-O2DO2A)): 10.55
- log KMnL [2, 15]: 6.96
- log K1^H [3]: 8.05
- log K2^H [3]: 7.43
- log K3^H [3]: 2.06
- Σlog Κ2^H [3]: 15.48
- log KMnL [4, 16]: 3.91
- r1p [5, 17]: 2.86 mM⁻¹ s⁻¹
- log KMnLOH [6]: 11.95
- log KMnHL [6]: 2.46
- log KMnL [6]: 14.56
- log KMnLOH ([7]; Mn^2+ complex, I = 0.15 M NaCl): 12.38
- log KMnL ([7]; Mn^2+ complex, I = 0.15 M NaCl): 9.38
- pMn [7]: 6.67

SMILES: O=C(O)CN1CCNCc2cccc(n2)CN(CC(=O)O)CC1 [H23,6-PC2A]
- log KMnL ([1]; 20 (H21,7-O2DO2A)): 20.37
- log KMnHL [1]: 2.36
- log KMnHL ([2]; T = 25 °C, I = 0.15 M NaCl): 5.27
- log KMnL [2, 15]: 9.57
- log K1^H [3]: 10.72
- log K2^H [3]: 8.37
- log K3^H [3]: 3.81
- log K4^H [3]: 1.26
- Σlog Κ2^H [3]: 19.09
- log KMnHL ([4]; T = 25 °C, I = 0.15 M NaCl): 5.87
- log KMnL [4, 16]: 8.11
- r2p ([5]; 0.49 T): 3.49 mM⁻¹ s⁻¹
- r1p [5, 17]: 2.72 mM⁻¹ s⁻¹
- r1p ([5]; 1.41 T): 2.40 mM⁻¹ s⁻¹
- r2p ([5]; 1.41 T): 4.20 mM⁻¹ s⁻¹
- log KMnHL [6]: 2.37 ^g
- log KMnL [6]: 24.09 ^g
- log KMnL ([7]; Mn^2+ complex, I = 0.15 M NaCl): 15.53
- log KMnHL ([7]; Mn^2+ complex, I = 0.15 M NaCl): 3.06
- pMn [7]: 8.09

SMILES: O=C(O)CN1CCNCCN(CC(=O)O)Cc2cccc(n2)C1 [H23,9-PC2A, pyclen-3,9-diacetate]
- log KMnL ([1]; 20 (H21,7-O2DO2A)): 19.49
- log KMnHL [1]: 2.74
- log KMnHL ([2]; T = 25 °C, I = 0.15 M NaCl): 5.08
- log KMnL [2, 15]: 9.92
- log KMnL ([2]; value in parenthesis): 10.0
- log K1^H [3]: 12.25
- log K2^H [3]: 5.97
- log K3^H [3]: 3.47
- log K4^H [3]: 1.99
- Σlog Κ2^H [3]: 18.22
- log KMnHL ([4]; T = 25 °C, I = 0.15 M NaCl): 5.91
- log KMnL [4, 16]: 9.84
- log KMnL ([4]; value in parenthesis): 8.4
- r2p ([5]; 0.49 T): 3.96 mM⁻¹ s⁻¹
- r1p [5, 17]: 2.91 mM⁻¹ s⁻¹
- r1p ([5]; 1.41 T): 2.24 mM⁻¹ s⁻¹
- r2p ([5]; 1.41 T): 4.82 mM⁻¹ s⁻¹
- log KMnHL [6]: 2.12 ^g
- log KMnL [6]: 23.58 ^g
- log KMnL ([7]; Mn^2+ complex, I = 0.15 M NaCl): 17.09
- log KMnHL ([7]; Mn^2+ complex, I = 0.15 M NaCl): 2.14
- pMn [7]: 8.64

SMILES: O=C([O-])CN1CCNCCN(CC(=O)[O-])Cc2cccc(n2)C1.[Mn+2] [[Mn(3,9-PC2A)]]
- r1^298_20 MHz ([8]; 20 MHz, 298 K): 2.91 mM⁻¹ s⁻¹
- ΔH^‡ ([8]; activation enthalpy of water exchange): 37.5 kJmol^−1
- q ([8]; hydration number, fixed during the fitting procedure): 1
- kex^298 ([8]; water exchange rate with bulk solvent): 1.26e+08 s⁻¹
- kex^298 ([8]; water exchange rate): 12.6 10^7s^−1
- kobs ([9]; previously reported): (3.28 ± 0.03) × 10^−4 s^−1
- t1/2 (h) at pH = 7.4 ([10]; extrapolated to pH = 7.4, ref 16 (PC2A complexes), 12, 13, 20): 21.0 h
- k3 ([10]; metal assisted dissociation, T = 25 °C, I = 0.15 M NaCl): 0.036 M⁻¹ s⁻¹
- k1 ([10]; proton assisted dissociation, T = 25 °C, I = 0.15 M NaCl, ref 16 (PC2A complexes), 12, 13, 20): 221 M⁻¹ s⁻¹
- KMnL x H ([10]; protonation constant of the complex from kinetic fit, T = 25 °C, I = 0.15 M NaCl): 3.6 × 10^3
- KML x Cu ([10]; stability constant of dinuclear intermediate, T = 25 °C, I = 0.15 M NaCl, unit assumed): 26 M⁻¹
- pMn [7]: 8.64

SMILES: O=C([O-])CN(CC(=O)[O-])C1CCCCC1N(CC(=O)[O-])Cc1ccccn1.[Mn+2] (stereo not drawn) [[Mn(PyC3A)]]
- kobs [9]: (6.76 ± 0.04) × 10^−4 s^−1

- stability in rat serum [11]: remained intact even after seven days
- complex dissociated in metal challenge [12]: about 30%
- logP [14]: −2.56
SMILES: O=C([O-])CN1CCOCCN(CC(=O)[O-])Cc2cccc(n2)C1.[52Mn+2] [[[^52Mn]Mn(3,9-OPC2A)]]
- transchelation in H4EDTA challenge [13]: slower and was not completed after seven days

- stability in rat serum [11]: remained intact even after seven days
- inertness in metal challenge [12]: stayed intact
- transchelation in H4EDTA challenge [13]: transchelation was complete
- logP [14]: −2.51
SMILES: O=C([O-])CN1CCNCCN(CC(=O)[O-])Cc2cccc(n2)C1.[52Mn+2] [[[^52Mn]Mn(3,9-PC2A)]]
